“Also recorded” adds a separate entry of the source.
Columns and labels:
[1] = test system: patients undergoing routine surgery; assay: Phase IIa study of prophylaxis of post-operative nausea and vomiting; format: in vivo, human; conditions: single dose at the time of the operation; 24-hour period post-operation
Experimental: A formulation of the invention was prepared, suitable for intravenous administration. It is a 2.5 mg/ml citrate-buffered solution (nominal pH 5.0) of amisulpride. The composition is given below.
The effects of amisulpride are studied in patients undergoing routine surgery in a randomised, controlled, open-label phase IIa study of efficacy of a single dose as prophylaxis of post-operative nausea and vomiting. The primary endpoint is the incidence of nausea and vomiting in the 24-hour period post-operation. The drug is administered at the time of the operation. The secondary endpoints are the nausea and vomiting rates and severity (measured separately) over 0-2 hours, 2-6 hours and 6-24 hours post-operation. In addition, the use of rescue medication and safety/adverse events, are recorded.

ferrets [2] = assay: Apomorphine-induced emesis in ferrets; format: in vivo, ferret
Experimental: (§1) The method used to test antiemetic activity preclinically follows that described by Gardner et al. (Brit. J. Pharmacol., 116: 3158-3163, 1995) and uses ferrets.
(§2) Sixty minutes before administration of the test substance, ferrets are placed in individual stainless steel cages (40×50×34 cm) with a grid floor. Then, the animals are challenged with apomorphine (0.25 mg/kg s.c.), morphine (0.4 mg/kg i.p.) or cisplatin (10 mg/kg i.p.) and immediately observed over at least a 2-hour period. Parameters recorded include: number of ferrets showing retches and vomits; latency to first retching; latency to first vomiting; number of retches; vomiting (number of vomits); number of emesis periods and mean duration of emesis periods. Retching is defined as a rhythmic respiratory movement against a closed glottis, while vomiting is defined as a forced expulsion of upper gastrointestinal contents.
Where apomorphine is used as the emetogen, amisulpride (or vehicle) was administered subcutaneously (s.c. 30 minutes before administration of apomorphine). Animals (6 per group) were treated with vehicle or amisulpride at 1, 10, or 100 μg/kg given sub-cutaneously. The observation period was 2 hours after apomorphine administration.

ferrets [3] = assay: Morphine-induced emesis in ferrets; format: in vivo, ferret
Experimental: as §1, §2
Where morphine is used as the emetogen, amisulpride (n=6 per group) or vehicle (n=6) is administered intravenously 5 minutes before the administration of morphine. The observation period is 2 hours after administration of the morphine.

dog = conditions: cited from earlier work
[4] = UKPAR Special Warnings and Precautions for Use; cited from earlier work
ferrets [5] = assay: Cisplatin-induced emesis in ferrets; format: in vivo, ferret
Experimental: as §1, §2
Where cisplatin is used as the emetogen, amisulpride (n=6 per group) or vehicle (n=6) is administered intravenously at least 5 minutes before the administration of cisplatin. The observation period is up to 72 hours, which allows effects on early and late phase emesis to be observed.
More specifically, data are reported from an experiment in which the observation period was 3 hours following cisplatin challenge. Cisplatin induced the occurrence of retches and vomits in 7 and 5 of 9 animals tested respectively. The mean incidences were 79.8±22.2 retches, 3.0±1.1 vomits and 10.7±2.8 emetic periods. Retches and vomits occurred after 85 minutes 6 seconds±7 minutes 53 seconds and 86 minutes 39 seconds±10 minutes 28 seconds respectively amisulpride was given at 0.2, 0.6, 2 and 6 mg/kg. At 0.2 mg/kg the incidence of retches was 23.3±10.8 (a 71% decrease in mean value), of vomits 0.2±0.2 (a 93% decrease) and emesis periods 3.7±2.0 (a 65% decrease). At 0.6 mg/kg the incidence of retches was 62.5±59.0, vomits 1.3±1.1 and emesis periods 3.7±1.3. […] At 2.0 mg/kg the incidence of retches was 3.3±2.5, vomits 0.2±0.2 and emesis periods 0.5±0.3. […] At 6 mg/kg the incidences were 11.7±3.8 retches, 1.2±1.0 vomits and 3.7±1.3 emesis periods.
As indicated above, droperidol is a known agent for the treatment of PONV.

[6] = amisulpride 1 μg/kg s.c. 30 minutes before apomorphine 0.25 mg/kg s.c., 2 hour observation
[7] = amisulpride 3 mg/kg i.v. before morphine, 2 hour observation
[8] = amisulpride 6 mg/kg i.v. before morphine
[9] = amisulpride 6 mg/kg i.v. before morphine, 2 hour observation
[10] = amisulpride 12 mg/kg i.v. before morphine, 2 hour observation
[11] = amisulpride 0.2 mg/kg, 3 hours observation
[12] = amisulpride 0.6 mg/kg, 3 hours observation
[13] = amisulpride 2.0 mg/kg, 3 hours observation
[14] = amisulpride 6 mg/kg, 3 hours observation

## CCN1CCCC1CNC(=O)c1cc(S(=O)(=O)CC)c(N)cc1OC (centres unmarked) [Amisulpride]
[1]
  effect on nausea, vomiting and retching associated with PONV: demonstrate the effect of amisulpride against the nausea as well as the vomiting and retching associated with PONV
Ferrets [2]; [6]
  number of emesis periods: 1.5±0.6
  number of retches: 6.0±2.2
  number of vomits: 0±0
Ferrets [2]; amisulpride 10 μg/kg s.c.
  inhibition of apomorphine emesis: totally inhibited
Ferrets [2]; amisulpride 100 μg/kg s.c.
  inhibition of apomorphine emesis: totally inhibited
Ferrets [3]; amisulpride 3 mg/kg i.v. 5 minutes before morphine 0.4 mg/kg i.p., 2 hour observation
  number of retches: 28.7±7.1
Ferrets [3]; [7]
  incidence of vomits: abolished the incidence of vomits
  number of emesis periods: 5.2±1.4
Ferrets [3]; [8]
  decrease in emesis periods vs control: 56%
  decrease in retches vs control: ~50%
  decrease in vomits vs control: 72%
Ferrets [3]; [9]
  number of emesis periods: 3.3±1.1
  number of retches: 17.8±6.8
  number of vomits: 0.5±0.3
Ferrets [3]; [10]
  number of emesis periods: 5.7±1.5
  number of retches: 31.7±11.2
  number of vomits: 0.8±0.4
Ferrets [3]; i.v., 2 hour observation
  effect on emetic effects induced by morphine vs vehicle control: reduces the emetic effects induced by morphine, in dose-dependent manner
dog
  effect on apomorphine-induced vomiting: inhibit apomorphine-induced vomiting in the dog
[4]
  effect on QT interval: induces a dose dependent prolongation of the QT interval
Ferrets [5]; amisulpride 0.2 mg/kg i.v. before cisplatin 10 mg/kg i.p., 3 hours observation
  incidence of retches: 23.3±10.8
Ferrets [5]; [11]
  decrease in emesis periods vs control: 65%
  decrease in mean retches vs control: 71%
  decrease in vomits vs control: 93%
  emesis periods: 3.7±2.0
  incidence of vomits: 0.2±0.2
Ferrets [5]; amisulpride 0.6 mg/kg (one animal excluded) and 2 mg/kg vs droperidol 3 mg/kg given 5 minutes before cisplatin
  efficacy compared with droperidol: better than droperidol at 3 mg/kg; also recorded: more effective than droperidol at 3 mg/kg
Ferrets [5]; [12]
  emesis periods: 3.7±1.3
  incidence of vomits: 1.3±1.1
Ferrets [5]; amisulpride 0.6 mg/kg, 3 hours observation, one animal had an early, exaggerated response
  incidence of retches: 62.5±59.0
Ferrets [5]; [13]
  emesis periods: 0.5±0.3
  incidence of retches: 3.3±2.5
  incidence of vomits: 0.2±0.2
Ferrets [5]; [14]
  emesis periods: 3.7±1.3
  incidence of retches: 11.7±3.8
  incidence of vomits: 1.2±1.0
Ferrets [5]; i.v., 72 hour period, early and late stages
  effect on emetic effects of cisplatin vs vehicle control: reduces the emetic effects of cisplatin, in dose-dependent manner

Source: patent US12194022B2, “Use of amisulpride as an anti-emetic” (ACACIA PHARMA LIMITED, priority 2010, dated 2025)
